Patent US7446091B2, “Methods and preparations for curing clinically ill patients” (Novo Nordisk A/S, priority 2000, dated 2008)

Tested on: mechanically ventilated, adult patients admitted to the intensive care unit (ICU)
Test: Example 2: prospective, randomized, controlled study, morbidity analysis
Format: in vivo, human
Conditions: for Patients with critical illness polyneuropathy - total no.: EMG-screened patients; for Number of transfusions per patient (median): admission day not taken into account
Source text: All mechanically ventilated, adult patients admitted to the intensive care unit (ICU) were eligible for inclusion.
At baseline, demographic, diagnostic and therapeutic information as well as information necessary to determine severity of illness and utilization of ICU resources were obtained from each patient (Table 1). These included APACHE-II (Acute Physiology and Chronic Health Evaluation) score with higher values indicating more severe illness (see Knaus) and simplified Therapeutic Intervention Scoring System (TISS-28) with higher values indicating a higher number of therapeutic interventions (see Reis Miranda & Keene). APACHE II and TISS scores were calculated daily from ICU admission to discharge or death.
A blood sample was taken upon ICU admission and daily at 06:00 h until discharge from ICU or death. On-admission and daily morning, whole blood glucose level as well as daily maximal and minimal glycemia were analysed. Analyses on the 06:00 h sample also included clinical chemistry, hematology and markers of inflammation.
Blood cultures were taken whenever continously monitored central body temperature acutely rose above 38.5° C. Results from all blood cultures were interpreted by the same blinded investigator. An episode of bacteremia, fungemia or mycobacteremia was defined by the first positive blood culture in a series. To identify a blood stream infection with coagulase-negative staphylocci, identical strains (compared by antibiogram) of microorganisms in two or more positive blood cultures were required (see Weinstein 1997 and Weinstein 1998).
In patients treated in ICU for more than one week, a weekly electromyography (EMG) was performed to screen for Critical Illness Polyneuropathy. EMGs were interpreted by the same electrophysiologist who was blinded for randomization. In case of ICU death, a post-mortem examination was performed to confirm the presumed cause of death.
The primary outcome measure was death from all causes during intensive care. Secondary outcome measures were in-hospital mortality, incidence of prolonged intensive care dependency and need for ICU re-admission, need for vital organ system support comprising mechanical ventilatory support, renal replacement therapy (continuous or intermittent hemofiltration or dialysis), inotropic or vasopressor support, incidence of critical illness polyneuropathy, the degree of inflammation, incidence of blood stream infections and use of antibiotics, transfusion requirements and incidence of hyperbilirubinemia. Furthermore, use of intensive care resources was analysed by cumulative TISS scores. In order to accurately and objectively assess duration of ICU stay, which is often influenced by non-patient related factors such as bed availability on regular wards, patients were defined ‘dischargable from ICU’ when they were no longer in need of vital organ system support and received at least ⅔rd of the caloric need through the normal enteral route or earlier when actually sent to a ward.
Baseline and outcome variables were compared using Student's t-test, Chi-square test and Mann-Whitney-U test, as appropriate. Death odds ratios were calculated using multivariate logistic regression analysis. The effect on time of in-hospital death was assessed by Kaplan-Meier analysis and logrank (Mantel-Cox) significance testing. Patients discharged from the hospital were considered as survivors. Data are presented as percentages, means ±SD or medians (25th-75th percentile) unless indicated otherwise.

[1] = IIS, ICU stay >5 days (N = 451)
[2] = IIS, ICU stay ≤5 days (N = 1097)
[3] = RIS, ICU stay >5 days (N = 451)
[4] = RIS, ICU stay ≤5 days (N = 1097)

insulin
>3 days C-reactive protein level above 150 mg/L (%) (IIS): (15%)
>3 days C-reactive protein level above 150 mg/L - total no. (IIS): 119
>3 days central body temperature ≤36° C. or […]38° C. (%) (IIS): (21%)
>3 days central body temperature ≤36° C. or […]38° C. - total no. (IIS): 164
>3 days white blood cell count ≤4000/μL or […]12000/μL (%) (IIS): (16%)
>3 days white blood cell count ≤4000/μL or […]12000/μL - total no. (IIS): 121
Lowest level of hemoglobin (g/dL) when transfused (median) (IIS): 8.3 g/dL
Number of patients requiring red cell transfusion (%) (IIS): (29%)
Number of patients requiring red cell transfusion - total no (IIS): 219
Patients needing dialysis or CVVH (%) (IIS): (4.8%)
Patients needing dialysis or CVVH - total no (IIS): 37
Patients on inotropic/vasopressor treatment (%) (IIS): (75%)
Patients on inotropic/vasopressor treatment - total no. (IIS): 574
Patients requiring >7 days intensive care (%) (IIS): (20.5%)
Patients requiring >7 days intensive care - total no (IIS): 157
Patients requiring >7 days ventilatory support (%) (IIS): (16.9%)
Patients requiring >7 days ventilatory support - total no. (IIS): 125
Patients requiring >14 days intensive care (%) (IIS): (11.4%)
Patients requiring >14 days intensive care - total no (IIS): 87
Patients requiring >14 days ventilatory support (%) (IIS): (7.7%)
Patients requiring >14 days ventilatory support - total no. (IIS): 57
Patients requiring >21 days intensive care (%) (IIS): (6.5%)
Patients requiring >21 days intensive care - total no (IIS): 50
Patients requiring >21 days ventilatory support (%) (IIS): (5.0%)
Patients requiring >21 days ventilatory support - total no. (IIS): 37
Patients treated with antibiotics for >10 days (%) (IIS): (11.2%)
Patients treated with antibiotics for >10 days - total no. (IIS): 86
Patients with an ICU stay of >5 days (IIS): 27%
Patients with blood stream infections during intensive care (%) (IIS): (4.2%)
Patients with blood stream infections during intensive care - total no (IIS): 32
Patients with critical illness polyneuropathy (% of EMG-screened) (IIS): (29%)
Patients with hyperbilirubinemia (peak bilirubin >2 mg/dL) (%) (IIS): (22%)
Patients with hyperbilirubinemia (peak bilirubin >2 mg/dL) - total no. (IIS): 171
Peak plasma creatinine >2.5 mg/dL (%) (IIS): (9.0%)
Peak plasma creatinine >2.5 mg/dL - total no. (IIS): 69
Peak plasma urea concentration >150 mg/dL (%) (IIS): (7.7%)
Peak plasma urea concentration >150 mg/dL - total no. (IIS): 59
Repetitive (>2) positive EMGs (% of EMG screened) (IIS): (7%)
Repetitive (>2) positive EMGs - total no (IIS): 11
>3 days C-reactive protein level above 150 mg/L, NNT (IIS vs RIS): 17
>3 days C-reactive protein level above 150 mg/L, RRR (%) (IIS vs RIS): 29%
>3 days abnormal central body temperature, NNT (IIS vs RIS): 20
>3 days abnormal central body temperature, RRR (%) (IIS vs RIS): 19%
>3 days abnormal white blood cell count, NNT (IIS vs RIS): 20
>3 days abnormal white blood cell count, RRR (%) (IIS vs RIS): 24%
In-hospital stay, difference between the two study groups (IIS vs RIS): not detectably different
Patients needing dialysis or CVVH, NNT (IIS vs RIS): 29
Patients needing dialysis or CVVH, RRR (%) (IIS vs RIS): 42%
Patients on inotropic/vasopressor treatment, RRR (%) (IIS vs RIS): =
Patients requiring >7 days intensive care, NNT (IIS vs RIS): 17
Patients requiring >7 days intensive care, RRR (%) (IIS vs RIS): 22%
Patients requiring >7 days ventilatory support, NNT (IIS vs RIS): 16
Patients requiring >7 days ventilatory support, RRR (%) (IIS vs RIS): 27%
Patients requiring >14 days intensive care, NNT (IIS vs RIS): 23
Patients requiring >14 days intensive care, RRR (%) (IIS vs RIS): 27%
Patients requiring >14 days ventilatory support, NNT (IIS vs RIS): 22
Patients requiring >14 days ventilatory support, RRR (%) (IIS vs RIS): 37%
Patients requiring >21 days intensive care, NNT (IIS vs RIS): 33
Patients requiring >21 days intensive care, RRR (%) (IIS vs RIS): 32%
Patients requiring >21 days ventilatory support, NNT (IIS vs RIS): 31
Patients requiring >21 days ventilatory support, RRR (%) (IIS vs RIS): 39%
Patients treated with antibiotics for >10 days, NNT (IIS vs RIS): 17
Patients treated with antibiotics for >10 days, RRR (%) (IIS vs RIS): 35%
Patients with blood stream infections, NNT (IIS vs RIS): 28
Patients with blood stream infections, RRR (%) (IIS vs RIS): 46%
Patients with critical illness polyneuropathy, RRR (%) (IIS vs RIS): 44%
Patients with hyperbilirubinemia, NNT (IIS vs RIS): 20
Patients with hyperbilirubinemia, RRR (%) (IIS vs RIS): 19%
Peak plasma creatinine >2.5 mg/dL, NNT (IIS vs RIS): 31
Peak plasma creatinine >2.5 mg/dL, RRR (%) (IIS vs RIS): 26%
Peak plasma urea concentration >150 mg/dL, NNT (IIS vs RIS): 29
Peak plasma urea concentration >150 mg/dL, RRR (%) (IIS vs RIS): 31%
Repetitive (>2) positive EMGs, NNT (IIS vs RIS): 8
Repetitive (>2) positive EMGs, RRR (%) (IIS vs RIS): 63%
Patients with critical illness polyneuropathy, NNT (IIS vs RIS, among screened patients): 4
Reduction in median cumulative TISS score (IIS vs RIS, long-stay patients): 20%
Patients with critical illness polyneuropathy - total no. (IIS): 47
Cumulative TISS (median) [1]: 431
Days on ICU (median) [1]: 12 days
Days on mechanical ventilatory support (median) [1]: 10 days
Cumulative TISS (median) [2]: 85
Days on ICU (median) [2]: 2 days
Days on mechanical ventilatory support (median) [2]: 1 days
Number of transfusions per patient (median) (IIS): 1
>3 days C-reactive protein level above 150 mg/L (%) (RIS): (21%)
>3 days C-reactive protein level above 150 mg/L - total no. (RIS): 162
>3 days central body temperature ≤36° C. or […]38° C. (%) (RIS): (26%)
>3 days central body temperature ≤36° C. or […]38° C. - total no. (RIS): 206
>3 days white blood cell count ≤4000/μL or […]12000/μL (%) (RIS): (21%)
>3 days white blood cell count ≤4000/μL or […]12000/μL - total no. (RIS): 166
Lowest level of hemoglobin (g/dL) when transfused (median) (RIS): 8.1 g/dL
Number of patients requiring red cell transfusion (%) (RIS): (31%)
Number of patients requiring red cell transfusion - total no (RIS): 243
Patients needing dialysis or CVVH (%) (RIS): (8.2%)
Patients needing dialysis or CVVH - total no (RIS): 64
Patients on inotropic/vasopressor treatment (%) (RIS): (75%)
Patients on inotropic/vasopressor treatment - total no. (RIS): 586
Patients requiring >7 days intensive care (%) (RIS): (26.3%)
Patients requiring >7 days intensive care - total no (RIS): 206
Patients requiring >7 days ventilatory support (%) (RIS): (23.2%)
Patients requiring >7 days ventilatory support - total no. (RIS): 175
Patients requiring >14 days intensive care (%) (RIS): (15.7%)
Patients requiring >14 days intensive care - total no (RIS): 123
Patients requiring >14 days ventilatory support (%) (RIS): (12.3%)
Patients requiring >14 days ventilatory support - total no. (RIS): 93
Patients requiring >21 days intensive care (%) (RIS): (9.5%)
Patients requiring >21 days intensive care - total no (RIS): 74
Patients requiring >21 days ventilatory support (%) (RIS): (8.2%)
Patients requiring >21 days ventilatory support - total no. (RIS): 62
Patients treated with antibiotics for >10 days (%) (RIS): (17.1%)
Patients treated with antibiotics for >10 days - total no. (RIS): 134
Patients with an ICU stay of >5 days (RIS): 31%
Patients with blood stream infections during intensive care - total no (RIS): 61
Patients with critical illness polyneuropathy (% of EMG-screened) (RIS): (52%)
Patients with hyperbilirubinemia (peak bilirubin >2 mg/dL) (%) (RIS): (27%)
Patients with hyperbilirubinemia (peak bilirubin >2 mg/dL) - total no. (RIS): 209
Peak plasma creatinine >2.5 mg/dL (%) (RIS): (12.2%)
Peak plasma creatinine >2.5 mg/dL - total no. (RIS): 96
Peak plasma urea concentration >150 mg/dL (%) (RIS): (11.2%)
Peak plasma urea concentration >150 mg/dL - total no. (RIS): 88
Repetitive (>2) positive EMGs (% of EMG screened) (RIS): (19%)
Repetitive (>2) positive EMGs - total no (RIS): 39
Patients with critical illness polyneuropathy - total no. (RIS): 110
Cumulative TISS (median) [3]: 536
Days on ICU (median) [3]: 15 days
Days on mechanical ventilatory support (median) [3]: 12 days
Cumulative TISS (median) [4]: 84
Days on ICU (median) [4]: 2 days
Days on mechanical ventilatory support (median) [4]: 1 days
Number of transfusions per patient (median) (RIS): 2
TISS score on the last day of study (median, IQR) (both study groups (IIS and RIS)): 30 (26-38)
ICU re-admission rate (similar in both groups (IIS and RIS)): 2.1%
